Reference: PubChem BioAssay AID1996
In brackets after ≈: the same amount, converted by molar mass.

details: buffer; pH 7.4; 200.0 µM

With `Cc1cccc(C)c1NC(=O)CN.Cl` as the compound, how does the solubility kinetic read?
The solubility kinetic was > 32.2 µg/mL.

With `CC(=O)c1ccc(NC(=O)c2onc(C)c2Cl)cc1` as the compound, how does the solubility kinetic read?
Its solubility kinetic is 6.8 µg/mL (≈ 24.4 µM).

For `COc1cccc(CN(C)C(=O)c2cc(S(=O)(=O)NC3CCCCC3)ccc2C)c1`, which solubility kinetic is on record?
The solubility kinetic was 45.3 µg/mL (≈ 105 µM).

With `CC(=O)CCSc1ncnc2sc(-c3ccccc3)cc12` as the compound, how does the solubility kinetic read?
Its solubility kinetic is 0.6 µg/mL (≈ 1.91 µM).

With `Cc1ccc(S(=O)(=O)CC(=O)Nc2ccc(Cl)cn2)cc1` as the compound, how does the solubility kinetic read?
Its solubility kinetic is 5.4 µg/mL (≈ 16.6 µM).

For `N#CC1(NC(=O)CSc2nnc3n2CCCCC3)CCCCC1`, which solubility kinetic is on record?
The solubility kinetic was > 50 µg/mL.

For `Cc1ccc(OCC(=O)N2C(C)CCCC2C)c([N+](=O)[O-])n1` (stereo unspecified), which solubility kinetic is on record?
Its solubility kinetic is > 46.1 µg/mL.

Which solubility kinetic does the source give for `CC1CC1C(=O)OCC(=O)NC(=O)c1ccccc1` (stereo unspecified) here?
Its solubility kinetic is > 39.2 µg/mL.

Which solubility kinetic does the source give for `Cn1ccnc1C(=O)Cc1ccc([N+](=O)[O-])cc1` here?
Its solubility kinetic is 35.2 µg/mL (≈ 144 µM).

For `O=C(NCc1ccco1)C1CC(=O)N(c2cccc(Cl)c2)C1` (stereo unspecified), which solubility kinetic is on record?
Its solubility kinetic is 39.7 µg/mL (≈ 125 µM).

With `Cc1nc(N)c(Cc2ccccc2F)c(N)n1` as the compound, how does the solubility kinetic read?
Its solubility kinetic is > 34.8 µg/mL.

Which solubility kinetic does the source give for `Cn1ccsc1=NC(=O)c1ccc(=O)[nH]c1` here?
Its solubility kinetic is 30.6 µg/mL (≈ 130 µM).

Which solubility kinetic does the source give for `CCCCNC(=O)C1CCC(CNc2nc(=S)[nH]c3ccccc23)CC1` (stereo unspecified) here?
The solubility kinetic was 2.6 µg/mL (≈ 6.98 µM).

With `CC(C)N(Cc1ccc(F)cc1)C(=O)c1cc2ccccc2oc1=O` as the compound, how does the solubility kinetic read?
Its solubility kinetic is 0.8 µg/mL (≈ 2.36 µM).

Which solubility kinetic does the source give for `O=C(NCCN1CCOCC1)c1ccc(Cl)c(S(=O)(=O)NCc2ccccc2)c1` here?
Its solubility kinetic is 63.2 µg/mL (≈ 144 µM).

Which solubility kinetic does the source give for `COC(=O)[C@@H](NC(=O)NC1CCCCC1C)C(C)C` (stereo partly specified) here?
The solubility kinetic was > 40.6 µg/mL.

For `CC(C)(C)NC(=O)COc1ccc(CNCc2ccccn2)cc1.Cl`, which solubility kinetic is on record?
Its solubility kinetic is > 54.6 µg/mL.

For `O=C1CC(c2ccccc2)CC(=O)N1c1ccccc1`, which solubility kinetic is on record?
The solubility kinetic was 11.3 µg/mL (≈ 42.6 µM).

For `CC(C)N1C(=O)c2ccccc2C1C(=O)NCCc1ccccc1` (stereo unspecified), which solubility kinetic is on record?
The solubility kinetic was 48 µg/mL (≈ 149 µM).

Which solubility kinetic does the source give for `CC(=O)NC1=NN(C(C)=O)C(C)(c2cccnc2)S1` (stereo unspecified) here?
Its solubility kinetic is > 41.7 µg/mL.

Which solubility kinetic does the source give for `CC(C)CCn1c(N2CCCC2)nc2c1c(=O)[nH]c(=O)n2C` here?
Its solubility kinetic is > 45.8 µg/mL.

For `CN(C(=O)Oc1ccc(F)cc1)c1ccccc1`, which solubility kinetic is on record?
The solubility kinetic was 24 µg/mL (≈ 97.9 µM).

Which solubility kinetic does the source give for `CC(=NCC1CCCO1)c1c(O)n(-c2ccccc2C)c(=O)[nH]c1=O` (stereo unspecified) here?
The solubility kinetic was > 51.5 µg/mL.

For `O=C(COc1cccnc1[N+](=O)[O-])N1CCC(Cc2ccccc2)CC1`, which solubility kinetic is on record?
Its solubility kinetic is 51.9 µg/mL (≈ 146 µM).

Which solubility kinetic does the source give for `O=C(O)CSc1ncnc2scc(-c3ccccc3)c12` here?
Its solubility kinetic is > 45.4 µg/mL.

For `Cc1ccc(C)c(N2C(=O)CC(Cc3ccccc3)C2=O)c1.Cl` (stereo unspecified), which solubility kinetic is on record?
Its solubility kinetic is > 49.5 µg/mL.

Which solubility kinetic does the source give for `Cn1ncc2c(=O)[nH]cnc21` here?
Its solubility kinetic is > 22.5 µg/mL.

Which solubility kinetic does the source give for `CN(C(=O)C1CCC(=O)N(C2CC2)C1)C1CCCCC1` (stereo unspecified) here?
The solubility kinetic was > 41.8 µg/mL.

For `COc1cccc(OC)c1CNC(=O)CCSCc1ccccc1F`, which solubility kinetic is on record?
The solubility kinetic was 37.3 µg/mL (≈ 103 µM).

For `CC(C)NC(=O)/C=C/C(=O)O`, which solubility kinetic is on record?
The solubility kinetic was 22.3 µg/mL (≈ 142 µM).

Which solubility kinetic does the source give for `CN(C)c1ccc(CN2CCC(C(N)=O)CC2)cc1.O=C(O)C(=O)O` here?
Its solubility kinetic is > 52.7 µg/mL.

With `COC(Cn1cc(C)c(=O)[nH]c1=O)OC` as the compound, how does the solubility kinetic read?
Its solubility kinetic is 30.3 µg/mL (≈ 141 µM).

With `COc1cccc(C(=O)NC2CCCc3ccccc32)c1OC` (stereo unspecified) as the compound, how does the solubility kinetic read?
Its solubility kinetic is 31.6 µg/mL (≈ 101 µM).

Which solubility kinetic does the source give for `CC(=O)c1csc(Nc2ccccc2Cl)n1` here?
Its solubility kinetic is 32.8 µg/mL (≈ 130 µM).

With `N#Cc1ccccc1COc1cccc2c1CCCC2O` (stereo unspecified) as the compound, how does the solubility kinetic read?
The solubility kinetic was 2.1 µg/mL (≈ 7.52 µM).

For `CCOC(=O)C1=C(C)N(C)C(=S)NC1c1c(OCC)ccc2ccccc12` (stereo unspecified), which solubility kinetic is on record?
Its solubility kinetic is < 0.4 µg/mL.

Which solubility kinetic does the source give for `O=[N+]([O-])c1ccc(C(O)CN2CCOCC2)cc1` (stereo unspecified) here?
The solubility kinetic was > 37.8 µg/mL.

Which solubility kinetic does the source give for `CC(Nc1nc(=S)nc(Nc2ccc(F)cc2)[nH]1)c1ccccc1` (stereo unspecified) here?
Its solubility kinetic is 0.6 µg/mL (≈ 1.76 µM).

For `COc1ccc(/C=C2/C(=O)ON=C2C)cc1Br`, which solubility kinetic is on record?
Its solubility kinetic is 14 µg/mL (≈ 47.3 µM).

Which solubility kinetic does the source give for `CN1CCC(N(C)c2ccc(C(N)=O)cc2[N+](=O)[O-])CC1` here?
Its solubility kinetic is 40.1 µg/mL (≈ 137 µM).

For `Cc1ccc(NCc2ccco2)cc1C.O=C(O)C(=O)O`, which solubility kinetic is on record?
The solubility kinetic was 4.7 µg/mL.

For `Cc1cccc(Nc2nc(N)nc(-c3oc4ccccc4c3C)n2)c1`, which solubility kinetic is on record?
The solubility kinetic was < 0.1 µg/mL.

With `Cc1cccc(OCCc2c(C)[nH]c(=S)[nH]c2=O)c1` as the compound, how does the solubility kinetic read?
Its solubility kinetic is 3.2 µg/mL (≈ 11.6 µM).

Which solubility kinetic does the source give for `Cc1cc(/C=C/C(=O)O)c(C)n1-c1ccc(Cl)cc1` here?
Its solubility kinetic is > 41.4 µg/mL.

For `CN(CCOC(=O)c1ccc2c(c1)OCO2)C(C)(C)C.Cl`, which solubility kinetic is on record?
The solubility kinetic was 41.7 µg/mL.

Which solubility kinetic does the source give for `CC(C)CNC(=O)c1ccc2c(c1)C(=O)N(Cc1ccco1)C2=O` here?
The solubility kinetic was 25.9 µg/mL (≈ 79.4 µM).

With `CC(C)N1C(=O)C(=O)N(CC(=O)N(C)c2ccccc2)C1=O` as the compound, how does the solubility kinetic read?
The solubility kinetic was > 45.5 µg/mL.

For `Cc1ccc(C2=Nc3ccccc3N=C(C(Cl)Cl)C2)cc1`, which solubility kinetic is on record?
The solubility kinetic was 3.1 µg/mL (≈ 9.77 µM).

Which solubility kinetic does the source give for `C=CCc1cccc(CNc2cnc3ccccc3c2)c1O` here?
The solubility kinetic was < 0.3 µg/mL.

For `O=C(NCc1ccccc1Br)c1ccncc1`, which solubility kinetic is on record?
Its solubility kinetic is 39.9 µg/mL (≈ 137 µM).

Which solubility kinetic does the source give for `COc1ccc(NC(=S)N2CCCC2)c(OC)c1` here?
The solubility kinetic was > 40 µg/mL.

Which solubility kinetic does the source give for `Cc1ccccc1N1CC2=C(C1=O)C(c1ccccc1)NC(=O)N2C` (stereo unspecified) here?
The solubility kinetic was 0.5 µg/mL (≈ 1.5 µM).

With `CN(C)S(=O)(=O)c1cccc(COC(=O)c2cnccn2)c1` as the compound, how does the solubility kinetic read?
Its solubility kinetic is 41.7 µg/mL (≈ 130 µM).

Which solubility kinetic does the source give for `Cc1cccc(NC(=O)Nc2cnccn2)c1C` here?
Its solubility kinetic is 1.9 µg/mL (≈ 7.84 µM).

Which solubility kinetic does the source give for `COc1cccc(CNC(=O)c2cc(C)nc3ccccc23)c1` here?
Its solubility kinetic is 41.1 µg/mL (≈ 134 µM).

Which solubility kinetic does the source give for `CCN(CC(=O)Nc1c(F)cccc1F)C(=O)Cc1c[nH]c2ccccc12` here?
The solubility kinetic was > 55.7 µg/mL.

With `CCSc1nc2sc3c(c2c(=O)n1CC)CCC3` as the compound, how does the solubility kinetic read?
The solubility kinetic was 2.2 µg/mL (≈ 7.85 µM).

Which solubility kinetic does the source give for `Cc1ccc(S(=O)(=O)N2CCCCC2)cc1` here?
Its solubility kinetic is 20 µg/mL (≈ 83.6 µM).

For `CC(C)OCCCNC(=O)NC(=O)c1ccc(Cl)cc1`, which solubility kinetic is on record?
Its solubility kinetic is 18.3 µg/mL (≈ 61.3 µM).

For `COc1cccc(N2CCN(C(=O)c3cc4cc(Cl)ccc4[nH]3)CC2)c1`, which solubility kinetic is on record?
The solubility kinetic was 11.8 µg/mL (≈ 31.9 µM).

Which solubility kinetic does the source give for `C=CCC1c2cccc(C(=O)O)c2C(=O)N1c1cccc(OC)c1` (stereo unspecified) here?
Its solubility kinetic is > 48.5 µg/mL.
